Experimental data as given in PMC12013143, “Ionic liquid-iontophoresis mediates transdermal delivery of sparingly soluble drugs” (Drug Delivery, 2025).
≈ marks a conversion by molar mass, not a printed value. Where “and” joins values, the source holds several entries; their conditions need not be identical. Equal entries are not always repeated.

Key:
[1] = In vitro skin permeation/retention with IL alone, horizontal diffusion cells; format: in vitro ADME; conditions: excised rat skin; for Effect on promoting permeation/retention of indomethacin: 20% IL or 1%SDS (label = vehicle); for Permeation/retention enhancement effect on apremilast: 20% IL (label = IL)
Method: (§1) Anesthetize rats by intraperitoneal injection with a dose of 1.0 g/kg urethane solution. Then remove the back hair using a pet shaver. Carefully remove the muscle tissue from the inner side of the skin with a surgical knife, cut it into small pieces, soak it in physiological saline for 30 min, cover the diffusion cell opening, and secure it with a clip. Intact rat skin was positioned between two cells, with the SC facing the donor compartment. The drugs were precisely measured at a weight of 4.00 mg each and subsequently dissolved in 4 mL of ILs or other control solutions, and added in donor compartment. The 0.01 M PBS (pH 6.8, 4.0 mL) was chosen as receptor medium. Sampling of ILs was conducted at various time points, specifically at 0, 4, 6, 8, 10, and 24 h. Following each sampling, 2.0 mL (all receptor medium was removed at the 10-h time point) of receptor medium was replaced with fresh PBS solution. The transdermal penetration of IS or IL-IS was conducted using an electroosmosis apparatus (Dajia DL-Z, China) to ensure a consistent current intensity of 0–0.5 mA. […] A receiving solution (2.0 mL) was collected at 1, 2, 4, 6, 8, and 10 h. After skin permeation experiments, rat skins were subsequently removed from cells, cut into pieces, and immersed in methanol for 12 h. The samples were then diluted with mobile phase at a ratio of 1:10. Following centrifugation for 10 min at 9000 rpm, the resulting supernatants were analyzed using HPLC, as previously described.
(§2) The drug skin permeation amount of solution system was calculated through concentration and volume of each sampling point: Q=[Cn×Vo+∑i=1n−1Ci×V]/S
(§3) In this experiment, Vo: 4.0 mL; V: 2.0 mL (24 h point: 4 mL); S: 0.74 cm^2.
(§4) The drug skin retention amount was calculated as follows: R=M/S

[2] = General properties of ILs diluted to 20% (w/w) with water: pH, electrical conductivity, viscosity; format: physicochemical; conditions: 20%IL in water
Method: Viscosity was determined using a viscometer (DV2T, Brookfield, America).

[3] = test system: HaCaT cells; experiment: Cytotoxicity of ILs, CCK-8 assay; format: cell-based, human; conditions: 24 h incubation
Method: The cytotoxicity of ILs to HaCaT cells was assessed using the Cell Counting Kit 8 (CCK-8) assay. The cell suspension (100 µL) was transferred to a 96-well plate at 8 × 10^3 cells/mL. Then, the 96-well plate was placed in a cell incubator. After 24 h, the medium was removed, and the cells were washed with phosphate-buffered saline (PBS, pH 7.4, 0.1 M). Then, ILs at different concentrations was added to each well for stimulation. After incubation for 24 h, CCK-8 solution (10 µL) was added to each well, followed by incubation for 2 h. The absorbance was measured at 450 nm using a microplate reader (SpectraMax iD5, Molecular Devices, America), and the cell viability was calculated.

[4] = In vitro skin permeation/retention with iontophoresis (IS) or IL-IS, horizontal diffusion cells; format: in vitro ADME, rat; conditions: for Effect of current intensity on retention amount / Effect of current intensity on transdermal permeation / Retention in negative current relative to positive current / Permeation in negative current relative to positive current / Increase of transdermal permeation by IL-IS / Increase of transdermal permeation by IL / Permeation applying IL-IS relative to IL alone / Permeation applying IL-IS relative to IS alone: 20% [Cho] [Cin]; for Effect of current intensity on retention amount / Effect of current intensity on transdermal permeation: negative current 0.1–0.3 mA; for Retention in negative current relative to positive current / Permeation in negative current relative to positive current: 0.3 mA; for Permeation in negative current relative to positive current / Increase of transdermal permeation by IL-IS / Increase of transdermal permeation by IL / Increase of transdermal permeation by IS: 10 h cumulative penetration; for Increase of transdermal permeation by IL: no current; for Increase of transdermal permeation by IS: no IL
Method: as §1, §2, §3, §4

[5] = physchem; conditions: Solubilities
[6] = test system: rat skin; experiment: CLSM of rhodamine B penetration into rat skin in vivo, with or without endocytosis inhibitors; conditions: for Fluorescence intensity after treatment with endocytosis inhibitors: nystatin, indomethacin, chlorpromazine applied 1 h before
[7] = 20% IL (label = IL), negative current 0.3 mA, 10 h
[8] = aripiprazole in 20% IL (label = IL)
[9] = pH 4.5, aqueous buffer, thermodynamic from solid
[10] = pH 6.8, aqueous buffer, thermodynamic from solid
[11] = pH 9, aqueous buffer, thermodynamic from solid
[12] = water, thermodynamic from solid

Cumulative permeation after 24 h ([1]; drug in water) | Skin retention amount after 24 h ([1]; drug in water) [µg/cm^2] | Effect of current intensity on transdermal permeation ([4]; 10 h) | Increase of transdermal permeation by IL-IS ([4]; negative current 0.3 mA) | Increase of transdermal permeation by IL [4] | Increase of transdermal permeation by IS ([4]; negative current 0.3 mA) | solubility [5, 9] [µg/mL] | solubility [5, 10] [µg/mL] | solubility [5, 11] [µg/mL] | solubility [5, 12] [µg/mL] | Permeation applying IL-IS relative to IL alone ([4]; negative current 0.3 mA, 10 h) | Compound | Electric conductivity [2] [ms/cm] | Viscosity [2] [mPa·s] | Effect of current intensity on retention amount ([4]; 10 h) | also measured
10.06 µg/cm^2 | 6.1 | not significantly enhanced | little effect | 3.3 fold | 1.6 fold | 2630 ± 648 (≈ 7350 µM) | 21.5 ± 5.7 (≈ 60.1 µM) | 2230 ± 136 (≈ 6230 µM) | 28.5 ± 0.7 (≈ 79.7 µM) |  | COc1ccc2c(c1)c(CC(=O)O)c(C)n2C(=O)c1ccc(Cl)cc1 [indomethacin] |  |  | did not result in a significant difference | 
 |  |  |  |  |  |  |  |  |  | ~2.6 fold | COc1cc2nc(N3CCN(C(=O)C4CCCO4)CC3)nc(N)c2cc1OC (stereo not drawn) [terazosin] |  |  |  | Permeation applying IL-IS relative to IS alone ([4]; negative current 0.3 mA, 10 h): ~5.2 fold

The next lines start with the compound.

Compound | Cumulative permeation after 24 h ([1]; drug in water) | Skin retention amount after 24 h ([1]; drug in water) [µg/cm^2] | Effect of current intensity on transdermal permeation ([4]; 10 h) | Increase of transdermal permeation by IL-IS ([4]; negative current 0.3 mA) | Increase of transdermal permeation by IL [4] | Increase of transdermal permeation by IS ([4]; negative current 0.3 mA) | solubility [5, 9] [µg/mL] | solubility [5, 10] [µg/mL] | solubility [5, 11] [µg/mL] | solubility [5, 12] [µg/mL] | Permeation applying IL-IS relative to IL alone ([4]; negative current 0.3 mA, 10 h) | Electric conductivity [2] [ms/cm] | Viscosity [2] [mPa·s] | Effect of current intensity on retention amount ([4]; 10 h) | also measured
CCCCCCCCCCCCOS(=O)(=O)[O-].[Na+] [1%SDS, sodium dodecyl sulfate] |  |  |  |  |  |  |  |  |  |  |  |  |  |  | Effect on promoting permeation/retention of indomethacin ([1]; 24 h): no significant effect
CC(=O)[O-].C[N+](C)(C)CCO [[Cho] [Ace]] |  |  |  |  |  |  |  |  |  |  |  | 32.12 ± 0.03 | 1.69 ± 0.08 |  | pH [2]: 9.37 and 9.37 ± 0.01; Cytotoxicity of ILs, descending order (from LD 50) [3]: [Cho] [Ole] > [Cho] [Cin] > [Cho] [Ger] > [Cho] [Ace] > [Cho] [Tar]; Permeation/retention enhancement effect on apremilast ([1]; 24 h): did not have significant permeation/retention enhancement effects; 24 h cumulative permeability of indomethacin relative to water ([1]; indomethacin in 20% IL (label = IL)): 4.8 times; Permeation enhancement effect on aripiprazole when IL-IS applied [4, 7]: did not have significant permeation enhancement effects
C[N+](C)(C)CCO.O=C([O-])/C=C/c1ccccc1 [[Cho] [Cin]] |  |  |  |  |  |  |  |  |  |  |  | 18.60 ± 0.06 | 1.97 ± 0.04 |  | pH [2]: 8.27 and 8.27 ± 0.01; Permeation of aripiprazole after 24 h, in words [1, 8]: did not show a significant difference; Skin retention of aripiprazole after 24 h, in words [1, 8]: surpassed that of other ILs; Increase of 10 h cumulative permeation of aripiprazole with IL-IS compared to IL or IS alone ([4]; 20% IL (label = IL), negative current 0.3 mA): 14 fold
C[N+](C)(C)CCO.O=C([O-])C(O)C(O)C(=O)O (stereo not drawn) [[Cho] [Tar]] |  |  |  |  |  |  |  |  |  |  |  | 28.74 ± 0.01 | 1.48 ± 0.01 |  | Permeation/retention enhancement effect on apremilast ([1]; 24 h): did not have significant permeation/retention enhancement effects; Effect on promoting permeation/retention of indomethacin ([1]; 24 h): no significant effect; Permeation enhancement effect on aripiprazole when IL-IS applied [4, 7]: did not have significant permeation enhancement effects
CCOc1cc([C@@H](CS(C)(=O)=O)N2C(=O)c3cccc(NC(C)=O)c3C2=O)ccc1OC [apremilast] | 8.1 µg/cm^2 | 6.1 | not significantly enhanced | 16 fold | 31 fold | little effect | 18.3 ± 7.2 (≈ 39.7 µM) | 13.5 ± 0.5 (≈ 29.3 µM) | 6.8 ± 1 (≈ 14.8 µM) | 21.8 ± 3.8 (≈ 47.3 µM) |  |  |  | did not result in a significant difference | Transdermal permeation versus [Cho] [Cin] concentration ([1]; IL alone, 24 h): linear correlation; Skin retention amount versus [Cho] [Cin] concentration ([1]; [Cho] [Cin] 0–20%, IL alone): no significant change; Retention in negative current relative to positive current ([4]; 10 h): ~3.4 fold; Permeation in negative current relative to positive current [4]: about 3.2 fold; solubility [5]: 21.8 ± 3.8 µg/mL (≈ 47.3 µM)
O=C1CCc2ccc(OCCCCN3CCN(c4cccc(Cl)c4Cl)CC3)cc2N1 [aripiprazole] | negligible | 1.1 | positive linear correlation | 14 fold | little effect | little effect | 152 ± 16.3 (≈ 338 µM) | 8.5 ± 3.2 (≈ 19 µM) | 0.79 ± 0.5 (≈ 1.76 µM) | 0.94 ± 0.15 (≈ 2.1 µM) | about 14 fold |  |  | did not result in a significant difference | Cumulative permeation after 24 h ([1]; drug in 1% SDS): 0.35 µg/cm^2; Skin retention amount after 24 h ([1]; drug in 1% SDS): 2.6 µg/cm^2; Retention in negative current relative to positive current ([4]; 10 h): ~3.0 fold; Permeation in negative current relative to positive current [4]: ~5.0 fold; Transdermal penetration versus [Cho] [Cin] concentration under IL-IS ([4]; [Cho] [Cin] 0–20%, negative current 0.3 mA, 10 h): increase with the rise in the concentration; Permeation at different pH values ([4]; pH 4.5, pH 6.8 and pH 9.0, 10 h, IS-related factors): no significant change
CN(Cc1ccc(C(C)(C)C)cc1)Cc1cccc2ccccc12 [butenafine] |  |  |  |  |  |  |  |  |  |  | ~16.5 fold |  |  |  | Permeation applying IL-IS relative to IS alone ([4]; negative current 0.3 mA, 10 h): ~11.0 fold
CCN(CC)c1ccc2c(-c3ccccc3C(=O)O)c3ccc(=[N+](CC)CC)cc-3oc2c1 [rhodamine B] |  |  |  |  |  |  |  |  |  |  |  |  |  |  | Fluorescence intensity after treatment with endocytosis inhibitors ([6]; IL, IS and IL-IS groups): partially suppressed; Fluorescence intensity after treatment with endocytosis inhibitors ([6]; control gel group): no substantial alteration; Transmission pathway in skin (overlap with DAPI) ([6]; rat skin in vivo, 10 h): primarily occurred through accessory organs; CLSM fluorescence intensity and depth in skin, order of treatments ([6]; rat skin in vivo, 10 h, control gel, IL gel, IS, IL-IS): IL-IS > IS > IL > Control
